Patent publication US20260297070A1, “CYCLIC [COMPOUND LEFT OUT] WRN INHIBITORS” (Nimbus Wadjet, Inc., priority 2023, published 2026)

These molecules were tested against T1, human Werner helicase (WRN-BV08, Uniprot Q14191, amino acids 517-1235 with L1074F point mutation) (Homo sapiens, UniProt Q14191, L1074F) (assay: WRN (BV08) ADP-Glo Assay). Settings: 0.15 nM WRN, 5 μM ATP, 0.1 nM DNA duplex, 15 min preincubation, 60 min at 25° C., pH 7.5, 1% DMSO; read-out: ADP-Glo_hWRN_IC50.
T1 construct: Uniprot Q14191, amino acids 517-1235 with L1074F point mutation; TEV-cleavable 8×His (C, cleaved yes); made in house; host or cells: Sf9 insect cells (baculovirus)
Assay type: biochemical
How it was run: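 0.15 nM WRN (aa 517-1235, L1074F, Sf9-expressed, tag cleaved) preincubated 15 min at 25 °C with compound, then 5 μM ATP and 0.1 nM DNA duplex added for 60 min. Buffer: 20 mM Bicine pH 7.5, 1 mM MgCl2, 10 mM KCl, 1 mM TCEP; 1% DMSO. ADP-Glo luminescence; IC50 by 4-parameter fit.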

T1 sequence (Q14191 with tags, fused parts or gaps L1074F limits assumed): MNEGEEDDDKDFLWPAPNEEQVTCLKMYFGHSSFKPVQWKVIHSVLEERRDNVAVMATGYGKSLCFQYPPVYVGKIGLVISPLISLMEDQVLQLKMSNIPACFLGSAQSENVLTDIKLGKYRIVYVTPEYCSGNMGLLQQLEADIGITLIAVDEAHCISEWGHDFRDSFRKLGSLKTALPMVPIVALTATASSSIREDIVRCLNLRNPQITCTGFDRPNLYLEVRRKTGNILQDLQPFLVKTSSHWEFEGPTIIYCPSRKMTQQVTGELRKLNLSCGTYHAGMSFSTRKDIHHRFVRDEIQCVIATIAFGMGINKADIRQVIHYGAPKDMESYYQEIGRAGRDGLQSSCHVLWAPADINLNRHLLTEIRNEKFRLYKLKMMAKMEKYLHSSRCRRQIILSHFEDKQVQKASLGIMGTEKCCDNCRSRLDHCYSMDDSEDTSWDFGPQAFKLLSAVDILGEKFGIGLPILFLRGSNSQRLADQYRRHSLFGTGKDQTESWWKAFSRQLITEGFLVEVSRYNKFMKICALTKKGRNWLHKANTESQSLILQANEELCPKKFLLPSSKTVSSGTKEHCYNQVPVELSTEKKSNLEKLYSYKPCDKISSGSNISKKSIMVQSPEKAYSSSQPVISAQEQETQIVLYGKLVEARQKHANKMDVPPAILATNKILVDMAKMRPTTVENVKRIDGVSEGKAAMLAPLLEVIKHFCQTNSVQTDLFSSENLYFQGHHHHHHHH

IC50	Structure (SMILES)
> 50 µM	Cn1cc2cc(CC(=O)N(Cc3ccncc3)C3C=CS(=O)(=O)C3)ccc2n1 (centres unmarked) [I-656, N-(1,1-dioxo-2,3-dihydro-1lambda6-thiophen-3-yl)-2-(2-methyl-2H-indazol-5-yl)-N-[(pyridin-4-yl)methyl]acetamide]
> 50 µM	O=C1CC(c2ccc(F)cc2)CCN1CC(=O)N(Cc1ccncc1)C1C=CS(=O)(=O)C1 (centres unmarked) [I-457, N-(1,1-dioxo-2,3-dihydro-1lambda6-thiophen-3-yl)-2-[4-(4-fluorophenyl)-2-oxopiperidin-1-yl]-N-[(pyridin-4-yl)methyl]acetamide]
> 50 µM	O=C(C1C2CN(CC(F)(F)F)CC21)N(Cc1ccncc1)C1C=CS(=O)(=O)C1 (centres unmarked) [I-618, N-(1,1-dioxo-2,3-dihydro-1lambda6-thiophen-3-yl)-N-[(pyridin-4-yl)methyl]-3-(2,2,2-trifluoroethyl)-3-azabicyclo[3.1.0]hexane-6-carboxamide]
< 0.5 µM	CC(C)(O)c1cc(CN(C(=O)C(c2ccc(-c3ccc(F)c(F)c3)cc2F)n2ccnn2)C2C=CS(=O)(=O)C2)ccn1 (single isomer, unassigned) [I-801, (2R*)-N-[(3R**)-1,1-dioxo-2,3-dihydro-1lambda6-thiophen-3-yl]-N-{[2-(2-hydroxypropan-2-yl)pyridin-4-yl]methyl}-2-(1H-1,2,3-triazol-1-yl)-2-{3,3′,4′-trifluoro-[1,1′-biphenyl]-4-yl}acetamide]
> 50 µM	O=C(CN1CCC(C(F)(F)F)CC1)N(Cc1ccncc1)C1C=CS(=O)(=O)C1 (centres unmarked) [I-572, N-(1,1-dioxo-2,3-dihydro-1lambda6-thiophen-3-yl)-N-[(pyridin-4-yl)methyl]-2-[4-(trifluoromethyl)piperidin-1-yl]acetamide]
> 50 µM	CNC(=O)CC(C(=O)N(Cc1ccncc1)C1C=CS(=O)(=O)C1)c1ccc(-c2ccc(F)cc2)cc1 (centres unmarked) [I-562, N-(1,1-dioxo-2,3-dihydro-1lambda6-thiophen-3-yl)-2-{4′-fluoro-[1,1′-biphenyl]-4-yl}-N′-methyl-N-[(pyridin-4-yl)methyl]butanediamide]
> 50 µM	O=C(Cc1ccc(-n2cccc2)cc1)N(Cc1ccc2cc[nH]c2c1)C1C=CS(=O)(=O)C1 (centres unmarked) [I-499, N-(1,1-dioxo-2,3-dihydro-1lambda6-thiophen-3-yl)-N-[(1H-indol-6-yl)methyl]-2-[4-(1H-pyrrol-1-yl)phenyl]acetamide]
> 50 µM	O=C([C@H]1C[C@@H](c2ccccc2)C1)N(Cc1ccncc1)C1C=CS(=O)(=O)C1 (some centres unmarked) [I-611, (1s,3s)-N-(1,1-dioxo-2,3-dihydro-1lambda6-thiophen-3-yl)-3-phenyl-N-[(pyridin-4-yl)methyl]cyclobutane-1-carboxamide]
< 0.5 µM	CC(C)(O)c1cc(CN(C(=O)Cn2cc(-c3ccc(C(F)(F)F)cc3)cn2)C2C=CS(=O)(=O)C2)ccn1 (single isomer, unassigned) [I-638]
> 50 µM	O=C1Cc2ccc(CC(=O)N(Cc3ccncc3)C3C=CS(=O)(=O)C3)cc2N1 (centres unmarked) [I-542, N-(1,1-dioxo-2,3-dihydro-1lambda6-thiophen-3-yl)-2-(2-oxo-2,3-dihydro-1H-indol-6-yl)-N-[(pyridin-4-yl)methyl]acetamide]
> 50 µM	O=C(Cc1nc(C2CCCC2)cs1)N(Cc1ccncc1)C1C=CS(=O)(=O)C1 (centres unmarked) [I-440, 2-(4-cyclopentyl-1,3-thiazol-2-yl)-N-(1,1-dioxo-2,3-dihydro-1lambda6-thiophen-3-yl)-N-[(pyridin-4-yl)methyl]acetamide]
> 50 µM	O=C(Cc1ccc(-c2ccc(F)cc2)cc1C(F)(F)F)N(Cc1ccncc1)C1C=CS(=O)(=O)C1 (centres unmarked) [I-465, N-(1,1-dioxo-2,3-dihydro-1lambda6-thiophen-3-yl)-2-[4′-fluoro-3-(trifluoromethyl)-[1,1′-biphenyl]-4-yl]-N-[(pyridin-4-yl)methyl]acetamide]
> 50 µM	N#Cc1ccc(CC(=O)N(Cc2ccncc2)C2C=CS(=O)(=O)C2)cc1 (centres unmarked) [I-513, 2-(4-cyanophenyl)-N-(1,1-dioxo-2,3-dihydro-1lambda6-thiophen-3-yl)-N-[(pyridin-4-yl)methyl]acetamide]
10 to 50 µM	CC(C(=O)N(Cc1ccnc(C(C)(C)O)c1)C1C=CS(=O)(=O)C1)n1cc(-c2ccc(C(F)(F)F)cc2)cn1 (single isomer, unassigned) [I-774, (2R*)-N-[(3R**)-1,1-dioxo-2,3-dihydro-1lambda6-thiophen-3-yl]-N-{[2-(2-hydroxypropan-2-yl)pyridin-4-yl]methyl}-2-{4-[4-(trifluoromethyl)phenyl]-1H-pyrazol-1-yl}propanamide]
0.5 to 5 µM	COc1ccc(CN(C(=O)Cn2cc(-c3ccc(F)c(F)c3)cn2)C2C=CS(=O)(=O)C2)cn1 (centres unmarked) [I-762, 2-[4-(3,4-difluorophenyl)-1H-pyrazol-1-yl]-N-(1,1-dioxo-2,3-dihydro-1lambda6-thiophen-3-yl)-N-[(6-methoxypyridin-3-yl)methyl]acetamide]

The next lines start with the molecule.

Structure (SMILES)	IC50
O=C(Cc1cnn(-c2ccccc2)c1)N(Cc1ccncc1)C1C=CS(=O)(=O)C1 (centres unmarked) [I-409, N-(1,1-dioxo-2,3-dihydro-1lambda6-thiophen-3-yl)-2-(1-phenyl-1H-pyrazol-4-yl)-N-[(pyridin-4-yl)methyl]acetamide]	> 50 µM
CCOc1cc(CN(C(=O)Cc2ccc(-c3ccc(F)cc3)cc2F)C2C=CS(=O)(=O)C2)ccn1 (centres unmarked) [I-84, 2-{3,4′-difluoro-[1,1′-biphenyl]-4-yl}-N-(1,1-dioxo-2,3-dihydro-1lambda6-thiophen-3-yl)-N-[(2-ethoxypyridin-4-yl)methyl]acetamide]	0.5 to 5 µM
COCC(C(=O)N(Cc1ccnc(C(C)(C)O)c1)C1C=CS(=O)(=O)C1)n1cc(-c2ccccc2)cn1 (centres unmarked) [I-324, N-(1,1-dioxo-2,3-dihydro-1lambda6-thiophen-3-yl)-N-{[2-(2-hydroxypropan-2-yl)pyridin-4-yl]methyl}-3-methoxy-2-(4-phenyl-1H-pyrazol-1-yl)propanamide]	10 to 50 µM
Cc1ccc(-c2ccc(C(C(=O)N(C)C)C(=O)N(Cc3ccncc3)C3C=CS(=O)(=O)C3)cc2)cc1 (centres unmarked) [I-277, N-(1,1-dioxo-2,3-dihydro-1lambda6-thiophen-3-yl)-N′,N′-dimethyl-2-{4′-methyl-[1,1′-biphenyl]-4-yl}-N-[(pyridin-4-yl)methyl]propanediamide]	5 to 10 µM
CC(C)(O)c1cc(CN(C(=O)Cc2ccc(S(F)(F)(F)(F)F)cc2F)C2C=CS(=O)(=O)C2)ccn1 (centres unmarked) [I-44, N-(1,1-dioxo-2,3-dihydro-1lambda6-thiophen-3-yl)-2-[2-fluoro-4-(pentafluoro-lambda6-sulfanyl)phenyl]-N-{[2-(2-hydroxypropan-2-yl)pyridin-4-yl]methyl}acetamide]	< 0.5 µM
COc1cc(CN(C(=O)Cn2cc(-c3ccc(F)cc3)cn2)C2C=CS(=O)(=O)C2)ccn1 (centres unmarked) [I-68, N-(1,1-dioxo-2,3-dihydro-1lambda6-thiophen-3-yl)-2-[4-(4-fluorophenyl)-1H-pyrazol-1-yl]-N-[(2-methoxypyridin-4-yl)methyl]acetamide]	< 0.5 µM
Cc1cccn1-c1ccc(CC(=O)N(Cc2cncnc2)C2C=CS(=O)(=O)C2)c(F)c1 (centres unmarked) [I-364, N-(1,1-dioxo-2,3-dihydro-1lambda6-thiophen-3-yl)-2-[2-fluoro-4-(2-methyl-1H-pyrrol-1-yl)phenyl]-N-[(pyrimidin-5-yl)methyl]acetamide]	10 to 50 µM
O=C(C1CNc2cc(-c3ccc(F)cc3)ccc21)N(Cc1ccncc1)C1C=CS(=O)(=O)C1 (centres unmarked) [I-124, N-(1,1-dioxo-2,3-dihydro-1lambda6-thiophen-3-yl)-6-(4-fluorophenyl)-N-[(pyridin-4-yl)methyl]-2,3-dihydro-1H-indole-3-carboxamide]	0.5 to 5 µM
CNC(=O)C(C(=O)N(Cc1ccnc(C(C)(C)O)c1)[C@@H]1C=CS(=O)(=O)C1)c1ccc(-c2ccc(F)c(F)c2)cc1F (some centres unmarked) [I-3, N1-(1,1-dioxido-2,3-dihydrothiophen-3-yl)-N1-((2-(2-hydroxypropan-2-yl)pyridin-4-yl)methyl)-N3-methyl-2-(3,3′,4′-trifluoro-[1,1′-biphenyl]-4-yl)malonamide]	< 0.5 µM
NC(=O)c1cccc(CN(C(=O)Cc2ccc(-n3cccc3)cc2)C2C=CS(=O)(=O)C2)c1 (centres unmarked) [I-318, 3-{[N-(1,1-dioxo-2,3-dihydro-1lambda6-thiophen-3-yl)-2-[4-(1H-pyrrol-1-yl)phenyl]acetamido]methyl}benzamide]	10 to 50 µM
COc1cc(CN(C(=O)Cc2cnn(-c3ccc(Cl)cc3)c2)C2C=CS(=O)(=O)C2)ccn1 (centres unmarked) [I-379, 2-[1-(4-chlorophenyl)-1H-pyrazol-4-yl]-N-(1,1-dioxo-2,3-dihydro-1lambda6-thiophen-3-yl)-N-[(2-methoxypyridin-4-yl)methyl]acetamide]	> 50 µM
CN(C)S(=O)(=O)c1ccc(CC(=O)N(Cc2ccncc2)C2C=CS(=O)(=O)C2)cc1 (centres unmarked) [I-388, 2-[4-(dimethylsulfamoyl)phenyl]-N-(1,1-dioxo-2,3-dihydro-1lambda6-thiophen-3-yl)-N-[(pyridin-4-yl)methyl]acetamide]	> 50 µM
O=C(Cc1ccc(-n2cccc2)cc1F)N(Cc1ccncc1)C1C=CS(=O)(=O)C1 (single isomer, unassigned) [I-127]	0.5 to 5 µM

Same assay, conditions: ADP-Glo_hWRN_IC50, 0.15 nM WRN, 5 μM ATP, 0.1 nM DNA duplex, 15 min preincubation, 60 min at 25° C., pH 7.5, 1% DMSO

IC50	Structure (SMILES)
> 50 µM	O=C(CN1CC=C(c2ccccc2)CC1)N(Cc1ccncc1)C1C=CS(=O)(=O)C1 (centres unmarked) [I-478, N-(1,1-dioxo-2,3-dihydro-1lambda6-thiophen-3-yl)-2-(4-phenyl-1,2,3,6-tetrahydropyridin-1-yl)-N-[(pyridin-4-yl)methyl]acetamide]
